Earlier results, collected in patent US6907319B2, “System for the application of pesticides” (Syngenta Crop Protection, Inc., priority 2000, dated 2005).

Columns and labels:
[1] = increasing the soil temperature
potato = conditions: cool temperatures (13° C. day/4° C. night) compared with 24° C./13° C.

CCNc1nc(Cl)nc(NC(C)C)n1 [atrazine]
reduction of the maximum phytotoxicity threshold [1]: 3 fold

O=C(O)CNCP(=O)(O)O [glyphosate]
phytotoxicity of glyphosate/ha, less than at 24° C./13° C. (potato): 50%

Nc1c(Cl)c(Cl)nc(C(=O)O)c1Cl [picloram]
reduction of the maximum phytotoxicity threshold [1]: 1.5 fold

Cc1[nH]c(=O)n(C(C)(C)C)c(=O)c1Cl [terbacil]
reduction of the maximum phytotoxicity threshold [1]: 2.5 fold

COC(=O)c1sccc1S(=O)(=O)NC(=O)Nc1nc(C)nc(OC)n1 [thiameturon-methyl]
activity with increasing rain (increasing of rain): reduces the activity | performance with increasing temperature and humidity (increasing temperature and humidity): markedly improved
